In ChEMBL document CHEMBL1140860, “Synthesis and evaluation of dihydroartemisinin and dihydroartemisitene acetal dimers showing anticancer and antiprotozoal activity” (Bioorg Med Chem, 2009):
pIC50: −log10 of the molar value.

How the values were obtained:
CCRF-CEM = experiment: Growth inhibition of human CCRF-CEM cells after 48 hrs by sulforhodamine B assay; assay type: functional
HL-60 = experiment: Growth inhibition of human HL-60(TB) cells after 48 hrs by sulforhodamine B assay; assay type: functional; details: HL-60, 48 h
K562 = experiment: Growth inhibition of human K562 cells after 48 hrs by sulforhodamine B assay; assay type: functional; details: K562, 48 h
MOLT-4 = experiment: Growth inhibition of human MOLT4 cells after 48 hrs by sulforhodamine B assay; assay type: functional; details: MOLT-4, 48 h
[1] = Growth inhibition of human […] cells after 48 hrs by sulforhodamine B assay; assay type: functional
SR = experiment: Growth inhibition of human SR cells after 48 hrs by sulforhodamine B assay; assay type: functional
A549 = experiment: Growth inhibition of human A549 cells after 48 hrs by sulforhodamine B assay; assay type: functional; details: A549, 48 h
HCC 2998 = experiment: Growth inhibition of human HCC2998 cells after 48 hrs by sulforhodamine B assay; assay type: functional; details: HCC 2998, 48 h
HCT-116 = experiment: Growth inhibition of human HCT116 cells after 48 hrs by sulforhodamine B assay; assay type: functional; details: HCT-116, 48 h
HCT-15 = experiment: Growth inhibition of human HCT15 cells after 48 hrs by sulforhodamine B assay; assay type: functional; details: HCT-15, 48 h
HT-29 = experiment: Growth inhibition of human HT-29 cells after 48 hrs by sulforhodamine B assay; assay type: functional; details: HT-29, 48 h
KM12 = experiment: Growth inhibition of human KM12 cells after 48 hrs by sulforhodamine B assay; assay type: functional; details: KM12, 48 h
SW-620 = experiment: Growth inhibition of human SW620 cells after 48 hrs by sulforhodamine B assay; assay type: functional; details: SW-620, 48 h
SF-268 = experiment: Growth inhibition of human SF268 cells after 48 hrs by sulforhodamine B assay; assay type: functional; details: SF-268, 48 h
SF-295 = experiment: Growth inhibition of human SF295 cells after 48 hrs by sulforhodamine B assay; assay type: functional; details: SF-295, 48 h
SF-539 = experiment: Growth inhibition of human SF539 cells after 48 hrs by sulforhodamine B assay; assay type: functional; details: SF-539, 48 h
SNB-19 = experiment: Growth inhibition of human SNB19 cells after 48 hrs by sulforhodamine B assay; assay type: functional; details: SNB-19, 48 h
U-251 = experiment: Growth inhibition of human U251 cells after 48 hrs by sulforhodamine B assay; assay type: functional; details: U-251, 48 h
M14 = experiment: Growth inhibition of human M14 cells after 48 hrs by sulforhodamine B assay; assay type: functional; details: M14, 48 h
Malme-3M = experiment: Growth inhibition of human MALME-3M cells after 48 hrs by sulforhodamine B assay; assay type: functional
SK-MEL-2 = experiment: Growth inhibition of human SK-MEL-2 cells after 48 hrs by sulforhodamine B assay; assay type: functional; details: SK-MEL-2, 48 h
SK-MEL-28 = experiment: Growth inhibition of human SK-MEL-28 cells after 48 hrs by sulforhodamine B assay; assay type: functional; details: SK-MEL-28, 48 h
SK-MEL-5 = experiment: Growth inhibition of human SK-MEL-5 cells after 48 hrs by sulforhodamine B assay; assay type: functional; details: SK-MEL-5, 48 h
UACC-257 = experiment: Growth inhibition of human UACC257 cells after 48 hrs by sulforhodamine B assay; assay type: functional; details: UACC-257, 48 h
UACC-62 = experiment: Growth inhibition of human UACC62 cells after 48 hrs by sulforhodamine B assay; assay type: functional; details: UACC-62, 48 h
IGROV-1 = experiment: Growth inhibition of human IGROV1 cells after 48 hrs by sulforhodamine B assay; assay type: functional; details: IGROV-1, 48 h
OVCAR-3 = experiment: Growth inhibition of human OVCAR-3 cells after 48 hrs by sulforhodamine B assay; assay type: functional; details: OVCAR-3, 48 h
OVCAR-4 = experiment: Growth inhibition of human OVCAR4 cells after 48 hrs by sulforhodamine B assay; assay type: functional; details: OVCAR-4, 48 h
OVCAR-5 = experiment: Growth inhibition of human OVCAR5 cells after 48 hrs by sulforhodamine B assay; assay type: functional; details: OVCAR-5, 48 h
OVCAR-8 = experiment: Growth inhibition of human OVCAR8 cells after 48 hrs by sulforhodamine B assay; assay type: functional; details: OVCAR-8, 48 h
SK-OV-3 = experiment: Growth inhibition of human SKOV3 cells after 48 hrs by sulforhodamine B assay; assay type: functional; details: SK-OV-3, 48 h
786-0 = experiment: Growth inhibition of human 786-0 cells after 48 hrs by sulforhodamine B assay; assay type: functional; details: 786-0, 48 h
A498 = experiment: Growth inhibition of human A498 cells after 48 hrs by sulforhodamine B assay; assay type: functional; details: A498, 48 h
ACHN = experiment: Growth inhibition of human ACHN cells after 48 hrs by sulforhodamine B assay; assay type: functional
CAKI-1 = experiment: Growth inhibition of human Caki1 cells after 48 hrs by sulforhodamine B assay; assay type: functional; details: CAKI-1, 48 h
RXF 393 = experiment: Growth inhibition of human RXF393 cells after 48 hrs by sulforhodamine B assay; assay type: functional; details: RXF 393, 48 h
SN12C = experiment: Growth inhibition of human SN12C cells after 48 hrs by sulforhodamine B assay; assay type: functional
TK-10 = experiment: Growth inhibition of human TK10 cells after 48 hrs by sulforhodamine B assay; assay type: functional; details: TK-10, 48 h
UO-31 = experiment: Growth inhibition of human UO31 cells after 48 hrs by sulforhodamine B assay; assay type: functional; details: UO-31, 48 h
PC-3 = experiment: Growth inhibition of human PC3 cells after 48 hrs by sulforhodamine B assay; assay type: functional; details: PC-3, 48 h
DU-145 = experiment: Growth inhibition of human DU145 cells after 48 hrs by sulforhodamine B assay; assay type: functional; details: DU-145, 48 h
MCF7 = experiment: Growth inhibition of human MCF7 cells after 48 hrs by sulforhodamine B assay; assay type: functional; details: MCF7, 48 h
NCI/ADR-RES = experiment: Growth inhibition of human NCI/ADR-RES cells after 48 hrs by sulforhodamine B assay; assay type: functional
MDA-MB-231 = experiment: Growth inhibition of human MDA-MB-231 cells after 48 hrs by sulforhodamine B assay; assay type: functional; details: MDA-MB-231, 48 h
[2] = Growth inhibition of human Hs 578T cells after 48 hrs by sulforhodamine B assay; assay type: functional
MDA-MB-435 = experiment: Growth inhibition of human MDA-MB-435 cells after 48 hrs by sulforhodamine B assay; assay type: functional; details: MDA-MB-435, 48 h
MDA-N = experiment: Growth inhibition of human MDA-N cells after 48 hrs by sulforhodamine B assay; assay type: functional
BT-549 = experiment: Growth inhibition of human BT549 cells after 48 hrs by sulforhodamine B assay; assay type: functional; details: BT-549, 48 h
T47D = experiment: Growth inhibition of human T47D cells after 48 hrs by sulforhodamine B assay; assay type: functional
Plasmodium falciparum [3] = experiment: Antimalarial activity after 72 hrs against chloroquine-sensitive Plasmodium falciparum D6 infected in erythrocytes by LDH assay; assay type: functional, organism-based; details: D6, 72 h
[4] = Selectivity index, ratio of TC50 for african green monkey (Cercopithecus aethiops) Vero cells to IC50 for chloroquine-sensitive Plasmodium falciparum D6; assay type: toxicity, cell-based
Plasmodium falciparum [5] = experiment: Antimalarial activity after 72 hrs against chloroquine-resistant Plasmodium falciparum W2 infected erythrocytes by LDH assay; assay type: functional, organism-based; details: W2, 72 h
[6] = Selectivity index, ratio of TC50 for african green monkey (Cercopithecus aethiops) Vero cells to IC50 for chloroquine-resistant Plasmodium falciparum W2; assay type: toxicity, cell-based
[7] = Cytotoxicity against african green monkey Vero cells after 48 hrs by neutral red assay; assay type: cell-based; details: chlorocebus sabaeus, read-out: TC50
EKVX = experiment: Growth inhibition of human EKVX cells after 48 hrs by sulforhodamine B assay; assay type: functional
HOP-62 = experiment: Growth inhibition of human HOP62 cells after 48 hrs by sulforhodamine B assay; assay type: functional; details: HOP-62, 48 h
HOP-92 = experiment: Growth inhibition of human HOP92 cells after 48 hrs by sulforhodamine B assay; assay type: functional; details: HOP-92, 48 h
NCI-H23 = experiment: Growth inhibition of human NCI-H23 cells after 48 hrs by sulforhodamine B assay; assay type: functional; details: NCI-H23, 48 h
NCI-H322M = experiment: Growth inhibition of human NCI-H322M cells after 48 hrs by sulforhodamine B assay; assay type: functional
NCI-H460 = experiment: Growth inhibition of human NCI-H460 cells after 48 hrs by sulforhodamine B assay; assay type: functional; details: NCI-H460, 48 h
NCI-H522 = experiment: Growth inhibition of human NCI-H522 cells after 48 hrs by sulforhodamine B assay; assay type: functional; details: NCI-H522, 48 h
COLO 205 = experiment: Growth inhibition of human COLO205 cells after 48 hrs by sulforhodamine B assay; assay type: functional; details: COLO 205, 48 h
HUVEC [8] = experiment: Antiangiogenic activity against HUVEC assessed as growth inhibition by NCI antiangiogenesis assay; assay type: functional, cell-based; details: Homo sapiens
HUVEC [9] = experiment: Antiangiogenic activity against HUVEC assessed as inhibition of VEGF-induced cell migration by NCI antiangiogenesis assay; assay type: functional, cell-based; details: Homo sapiens
HUVEC [10] = experiment: Antiangiogenic activity against HUVEC assessed as inhibition of capillary-like structure formation by NCI antiangiogenesis assay; assay type: functional, cell-based; details: Homo sapiens

## C=C1[C@@H](OCCCO[C@H]2O[C@@H]3O[C@@]4(C)CC[C@H]5[C@H](C)CC[C@@H](C2=C)[C@@]35OO4)O[C@@H]2O[C@@]3(C)CC[C@H]4[C@H](C)CC[C@@H]1[C@@]24OO3
CCRF-CEM
  GI50: 97 nM
HL-60
  GI50: 98 nM
K562
  GI50: 50 nM
MOLT-4
  GI50: 121 nM
[1]
  GI50: 13 nM
SR
  GI50: 28 nM
A549
  GI50: 5330 nM
HCC 2998
  GI50: 5980 nM
HCT-116
  GI50: 27 nM
HCT-15
  GI50: 12 nM
HT-29
  GI50: 43 nM
KM12
  GI50: 94 nM
SW-620
  GI50: 62 nM
SF-268
  GI50: 6290 nM
SF-295
  GI50: 7650 nM
SF-539
  GI50: 5340 nM
SNB-19
  GI50: 11100 nM
U-251
  GI50: 288 nM
M14
  GI50: 205 nM
Malme-3M
  GI50: 7280 nM
SK-MEL-2
  GI50: 3140 nM
SK-MEL-28
  GI50: 6070 nM
SK-MEL-5
  GI50: 496 nM
UACC-257
  GI50: 479 nM
UACC-62
  GI50: 7200 nM
IGROV-1
  GI50: 622 nM
OVCAR-3
  GI50: 107 nM
OVCAR-4
  GI50: 73 nM
OVCAR-5
  GI50: 5040 nM
OVCAR-8
  GI50: 372 nM
SK-OV-3
  GI50: 10900 nM
786-0
  GI50: 346 nM
A498
  GI50: > 50000 nM
ACHN
  GI50: 6380 nM
CAKI-1
  GI50: 1770 nM
RXF 393
  GI50: 6460 nM
SN12C
  GI50: 7300 nM
TK-10
  GI50: 218 nM
UO-31
  GI50: 181 nM
PC-3
  GI50: 63 nM
DU-145
  GI50: 7590 nM
MCF7
  GI50: 150 nM
NCI/ADR-RES
  GI50: 533 nM
MDA-MB-231
  GI50: 13100 nM
[2]
  GI50: 74 nM
MDA-MB-435
  GI50: 443 nM
MDA-N
  GI50: 518 nM
BT-549
  GI50: 7520 nM
T47D
  GI50: 14 nM
Plasmodium falciparum [3]
  pIC50: 4.73
[4]
  selectivity ratio: > 43
Plasmodium falciparum [5]
  pIC50: 5.29
[6]
  selectivity ratio: > 159
[7]
  CC50 at 48 h: > 806000 nM
EKVX
  GI50: 476 nM
HOP-62
  GI50: 6880 nM
HOP-92
  GI50: 745 nM
NCI-H23
  GI50: 1070 nM
NCI-H322M
  GI50: 11200 nM
NCI-H460
  GI50: 5440 nM
NCI-H522
  GI50: 401 nM
COLO 205
  GI50: 122 nM

## CO[C@@H]1[C@H](OC(=O)NC(=O)CCl)CC[C@]2(CO2)[C@H]1[C@@]1(C)O[C@@H]1CC=C(C)C [O-CHLOROACETYLCARBAMOYLFUMAGILLOL]
HUVEC [8]
  pIC50: 5.50
HUVEC [9]
  pIC50: 6.30
HUVEC [10]
  pIC50: 6.00

## CC(=O)O[C@H]1C(=O)[C@@]2(C)[C@H]([C@H](OC(=O)c3ccccc3)[C@]3(O)C[C@H](OC(=O)[C@H](O)[C@@H](NC(=O)c4ccccc4)c4ccccc4)C(C)=C1C3(C)C)[C@]1(OC(C)=O)CO[C@@H]1C[C@@H]2O [PACLITAXEL]
HUVEC [8]
  pIC50: 5.78
HUVEC [9]
  pIC50: 7.00
HUVEC [10]
  pIC50: 7.30
